Our source for the Cmax, Papp A→B and bioavailability values is ChEMBL document CHEMBL1142370, “Synthesis and SAR of pyridazinone-substituted phenylalanine amide alpha4 integrin antagonists” (Bioorg Med Chem Lett, 2008).

By Cmax is commonly meant the maximum level reached in the sampled fluid or tissue. One may read the Papp A→B as the apparent permeability from the apical to the basolateral side of a cell layer. Read a high Papp A→B as fast passage. Broadly, the bioavailability is the share of a dose that reaches the circulation, judged against a reference dose that is usually intravenous. A high value points to much systemic uptake.

Series [1] is described as follows: in vivo. Particulars: rat, po, 30 mg/kg.
The next series is described as follows: in vitro. As to conditions: human, Caco-2.
Series [2] is described as follows: in vivo. As to conditions: rat, po, 30 mg/kg. This is another data set of the same source.

As to `COc1cnn(C)c(=O)c1-c1ccc(C[C@H](NC(=O)c2c(Cl)cccc2Cl)C(=O)O)cc1`, the Cmax in “in vivo [1]” was found to be 0.1 µM. In “in vitro”, this molecule came in with a Papp A→B of 0.13 ×10⁻⁶ cm/s.
The molecule `COc1cnn(C)c(=O)c1-c1ccc(C[C@H](NC(=O)c2cc(F)ccc2Cl)C(=O)OCCO)cc1` returned a Cmax in “in vivo [1]” of 19 µM. The bioavailability in “in vivo [2]” turned out to be 5%.
With `COc1cnn(C)c(=O)c1-c1ccc(C[C@H](NC(=O)c2cc(F)ccc2Cl)C(=O)O)cc1`, the bioavailability in “in vivo [2]” turned out to be 0%.
